Experimental data: article PMC12337082 (Journal of Biochemical and Molecular Toxicology, 2025)

Assays:
MCF‐7 [1] = assay: Annexin V/PI staining, Tali image‐based cytometry, MCF‐7; type: cell-based, human; details: MCF‐7, 24 h
Text: (§1) To assess apoptosis and cell death, cells were stained with Annexin V‐PI dyes (Tali Apoptosis Kit‐Annexin V Alexa Fluor 488 and PI‐, Molecular Probes A10788, Invitrogen) and quantified using Tali Image‐Based Cytometer (Invitrogen) and fluorescence microscopy (Olympus CKX41 Inverted Phase Contrast Fluorescence Microscope furbished with reflected fluorescence illuminator CKX‐RFA).
(§2) To assess whether our compounds produce their cytotoxic effects through induction of apoptosis, apoptosis was investigated using Annexin V/PI labeling and MMP methods (Figures 4A−C). In addition, by utilizing TALI image‐based cytometry and fluorescent microscopy, the number of cells was analyzed for different concentrations of agents (Table 4).

MDA‐MB‐231 [2] = assay: Annexin V/PI staining, Tali image‐based cytometry, MDA‐MB‐231; type: cell-based, human; details: MDA‐MB‐231, 24 h
Text: as §1, §2

[3] = test system: L‐929 mouse fibroblast cell line; assay: MTT cell viability assay, L‐929 control fibroblasts; type: cell-based
Text: (§3) MCF‐7, MDA‐MB‐231, and L‐929 mouse fibroblast cell lines were obtained from the American Type Culture Collection (ATCC, Manassas, Virginia, USA). MCF‐7 is a hormone‐responsive, differentiated mammary epithelium cell line with an ER+, PR+, and HER2‐ pattern (ATCC, HTB‐22). MDA‐MB‐231 is a triple‐negative differentiated mammary epithelium cell line (ATCC, HTB‐26). The L‐929 mouse fibroblast cell line is derived from the normal subcutaneous connective tissue of a mouse and is commonly used in cytotoxicity assays (ATCC, CCL‐1). All cell lines were cultured in DMEM medium (Dulbecco's Modified Eagle Medium, Gibco), supplemented with 10% fetal bovine serum (Gibco), 1% glutamine, and penicillin/streptomycin (Gibco) in a humidified atmosphere containing 5% CO2 at 37°C. Cell viability was tested using Trypan blue staining.
(§4) The MTT [3‐(4,5‐dimethylthiazol‐2‐yl)−2,5‐diphenyltetrazolium bromide] assay is a colorimetric assay for determining cell metabolic activity. In the MTT assay, the yellow dye MTT that dissolves in water is changed by mitochondrial reductase into a purple formazan that is non‐soluble. The water‐insoluble formazan produced is solubilized in a solubilization buffer, and absorbances are detected.
(§5) In 96‐well plates, the cells were cultivated at a density of 5 × 10^3 cells/well using 100 µL medium. […] 10 μL of the MTT labeling reagent (final concentration 0.5 mg/mL) were added to each well at the end of the incubation periods, and the wells were incubated for an additional 4 h. Next, each well received 100 μL of solubilization buffer (10% SDS in 0.01 M HCl) and was overnight incubated, and the absorbance of formazan products was evaluated at 550 nm using a multi‐mode microplate reader (Synergy H1, Biotech Instruments Inc., Vermont, USA). The results were normalized relative to the absorbances of calculated percent concentrations of DMSO. All tests involved three replicates with three independent experiments.
(§6) All statistical evaluations, including t‐tests and IC50 values, were calculated using the GraphPad Prism software tool (v6.0, GraphPad Software Inc., San Diego, USA). Statistical significance was defined as p ˂ 0.05 (*p < 0.05, **p < 0.01, ***p < 0.001, ****p < 0.0001).

PGE2 release [4] = assay: PGE2 ELISA, MDA‐MB‐231; type: cell-based, human; details: Homo sapiens; MDA‐MB‐231, 50 µM, 24 h
Experimental: (§7) PGE2 ELISA kit (ENZO, ADI‐900‐001) was used to determine prostaglandin synthesis levels. MCF‐7 and MDA‐MB‐231 breast cancer cells were cultured at a density of 1 × 10^6 cells/well in a 6‐well culture dish. […] Following 24 h of incubation, the medium was replaced with a fresh one, 10 µM arachidonic acid was added, and it was further incubated for 1 h. The PGE2 levels were determined according to the kit protocol.

Bax/Bcl‐2 ratio = assay: Western blot Bax/Bcl‐2 ratio in breast cancer cell lines; type: cell-based, human; details: both cell lines, 50 µM, 24 h
Experimental: (§8) Total protein levels were measured using the Take3 Multi‐Volume Plate (Synergy H1, BioTek Instruments Inc., Vermont, USA). In accordance with the classical protocol, transferred proteins were exposed to the following primary antibodies: Beta‐actin (NB600‐501, Novus Biologicals), Bax (SPM336, NBP2‐32809), Bcl‐2 (100/D5, NBP2‐15200), cleaved PARP (194C1439, NBP2‐27335), and COX‐2 (D‐12:sc‐166475, Santa Cruz). The bands were visualized with chemiluminescent HRP substrates (Western Bright ECL‐Advansta, K‐12045‐050). Using a chemiluminescence imaging system (Celvin S, BioStep), the relative quantification was done based on the level of β‐actin proteins.

MDA‐MB‐231 [5] = assay: Mitochondrial membrane potential (JC‐1) apoptosis assay, MDA‐MB‐231; type: cell-based, human; details: MDA‐MB‐231, 50 μM, 24 h, MMP assay
Experimental: (§9) Apoptosis was also investigated by evaluating mitochondrial membrane potential changes (MMP assay). MCF‐7, MDA‐MB‐231, and L‐929 cells were stained with JC‐1 dye according to the manufacturer's protocols (JC‐1 MMP Assay Kit, KA1324, Abnova). The apoptotic to healthy cell ratio was calculated using absorbances collected from two different fluorescence channels (535/595 for healthy cells, 485/535 for apoptotic cells) (Synergy H1, Biotech Instruments Inc., Vermont, USA).

c‐PARP = assay: Western blot cleaved PARP, MDA‐MB‐231; type: cell-based, human; details: MDA‐MB‐231, 24 h, all concentrations (50 and 75 µM); not measurable in MCF‐7
Experimental: as §8

L‐929 = assay: Mitochondrial membrane potential (JC‐1) apoptosis assay, L‐929; type: cell-based, mouse; details: L‐929, 50 μM, 24 h, MMP assay
Experimental: as §9

MCF‐7 [6] = assay: MTT cell viability assay, MCF‐7; type: cell-based, human; details: for IC50: Homo sapiens, MCF7, MTT
Text: as §3, §4, §5, §6

PGE2 release [7] = assay: PGE2 ELISA, MCF‐7; type: cell-based, human; details: Homo sapiens, MCF7; MCF‐7, 50 µM, 24 h
Experimental: as §7

SMILES: CCc1cccc2c3c([nH]c12)C(CC)(CC(=O)N/N=C/c1ccc(OC)cc1)OCC3 (racemic) [SGK 206, 2‐(1,8‐Diethyl‐1,3,4,9‐tetrahydropyrano[3,4‐b]indole‐1‐yl) acetic acid[(4‐methoxyphenyl)methylene]acetohydrazide]
- Apoptotic cells (MCF‐7 [1]; 25 µM): 2%
- Dead cells (MCF‐7 [1]; 25 µM): 9%
- Live cells (MCF‐7 [1]; 25 µM): 89%
- Apoptotic cells (MCF‐7 [1]; 50 µM): 4%
- Dead cells (MCF‐7 [1]; 50 µM): 15%
- Live cells (MCF‐7 [1]; 50 µM): 81%
- Apoptotic cells (MCF‐7 [1]; 75 µM): 19%
- Dead cells (MCF‐7 [1]; 75 µM): 19%
- Live cells (MCF‐7 [1]; 75 µM): 62%
- Apoptotic cells (MDA‐MB‐231 [2]; 25 µM): 1%
- Dead cells (MDA‐MB‐231 [2]; 25 µM): 2%
- Live cells (MDA‐MB‐231 [2]; 25 µM): 97%
- Apoptotic cells (MDA‐MB‐231 [2]; 50 µM): 4%
- Dead cells (MDA‐MB‐231 [2]; 50 µM): 3%
- Live cells (MDA‐MB‐231 [2]; 50 µM): 93%
- Apoptotic cells (MDA‐MB‐231 [2]; 75 µM): 8%
- Dead cells (MDA‐MB‐231 [2]; 75 µM): 25%
- Live cells (MDA‐MB‐231 [2]; 75 µM): 67%
- IC50 ([3]; L‐929, 24 h): 71.3 ± 2.92 µM
- IC50 ([3]; L‐929, 48 h): 47.9 ± 1.2 µM
- IC50 ([3]; L‐929, 72 h): 49.7 ± 1.64 µM
- IC50 ([3]; Mus musculus, L929, 24 h, L‐929, 24 h): 71 µM
- IC50 ([3]; Mus musculus, L929, 48 h, L‐929, 48 h): 47 µM
- IC50 ([3]; Mus musculus, L929, 72 h, L‐929, 72 h): 49 µM
- inhibition at 50 µM (PGE2 release [4]): 91%
- Bax/Bcl‐2 ratio change (Bax/Bcl‐2 ratio): significantly increased
- Increase in apoptosis compared to the control group (MDA‐MB‐231 [5]): 57%
- c‐PARP (89‐kD fragment) protein change (c‐PARP): consistent activation
- Increase in apoptosis compared to the control group (L‐929): 8%
- IC50 (MCF‐7 [6]; MCF‐7, 24 h): 37 ± 1.74 µM
- IC50 (MCF‐7 [6]; MCF‐7, 48 h): 34 ± 5.7 µM
- IC50 (MCF‐7 [6]; MCF‐7, 72 h): 26 ± 0.66 µM
- Selectivity index (SI) (MCF‐7 [6]; MCF‐7 in comparison to L‐929, 24 h): 1.93
- Selectivity index (SI) (MCF‐7 [6]; MCF‐7 in comparison to L‐929, 48 h): 1.4
- Selectivity index (SI) (MCF‐7 [6]; MCF‐7 in comparison to L‐929, 72 h): 1.91
- inhibition at 50 µM (PGE2 release [7]): 90%
